Source: patent US9416141B2 (University of Washington through its Center for …, priority 2012, dated 2016)
pEC50: −log10 of the molar value. Structures can show the parent of a compound that is named as a salt.

Tested on: hair cells
Assay: Hair cell toxicity assay in zebrafish (neomycin-induced hair cell death, DASPEI staining of neuromasts)
Type: in vivo
Conditions: Danio rerio; for Emax at 25 µM: maximum observed @ 25 μM test compound; for pEC50: zebrafish larvae 5-7 dpf, 1 h pre-treatment, then 200 micromolar neomycin + test compound 30 min, read-out: HC50 (concentration that would produce 50% hair cell survival); for Emax at 8.3 µM: maximum observed @ 8.3 μM test compound; for Emax at 2.8 µM: maximum observed @ 2.8 μM test compound
Method in brief: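 Zebrafish larvae 5-7 dpf pre-treated 1 h with compound (0.010-25 μM), then 30 min with 200 μM neomycin plus compound. DASPEI stained 10 neuromasts per fish, scored 0-2 (total 0-20), normalised to vehicle controls as % hair cell survival. HC50 linearly interpolated if survival reached ≥50%; HCmax is maximum survival.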

[1] = 200 micromolar neomycin, read-out: Max HC Protection (HCmax, % hair cell survival)

CC(C)C(C)N1CCc2c(sc(NC(=O)Nc3ccc(Cl)cc3)c2C(N)=O)C1 (racemic) [Example 48, (+/−)-2-[3-(4-Chlorophenyl)ureido]-6-(3-methylbutan-2-yl)-4,5,6,7-tetrahydrothieno[2,3-c]pyridine-3-carboxamide hydrochloride]
Emax at 25 µM [1]: 72% | pEC50: 5.00 to 6.00

CCN1CCc2c(sc(NC(=O)Nc3ccc(C#N)cc3)c2C(N)=O)C1 [Example 67, 2-[3-(4-Cyanophenyl)ureido]-6-ethyl-4,5,6,7-tetrahydrothieno[2,3-c]pyridine-3-carboxamide hydrochloride]
Emax at 8.3 µM [1]: 20%

CCN1CCc2c(sc(NC(=O)Nc3ccc(Cc4ccccc4)cc3)c2C(N)=O)C1 [Example 226, 2-{[(4-benzylphenyl)carbamoyl]amino}-6-ethyl-4H,5H,6H,7H-thieno[2,3-c]pyridine-3-carboxamide]
Emax at 8.3 µM [1]: 68% | pEC50: 5.00 to 6.00

CC[N+]1(C)CCc2c(sc(NC(=O)Nc3ccc(Cl)cc3)c2C(N)=O)C1 (centres unmarked) [Example 136, 3-Carbamoyl-2-[3-(4-chlorophenyl)ureido]-6-ethyl-6-methyl-4,5,6,7-tetrahydrothieno[2,3-c]pyridin-6-ium iodide]
Emax at 25 µM [1]: 76% | pEC50: 5.00 to 6.00

C[N+]1(CC2CCC2)CCc2c(sc(NC(=O)Nc3ccc(Cl)cc3)c2C(N)=O)C1 (centres unmarked) [Example 145, 3-Carbamoyl-2-[3-(4-chlorophenyl)ureido]-6-(cyclobutylmethyl)-6-methyl-4,5,6,7-tetrahydrothieno[2,3-c]pyridin-6-ium iodide]
Emax at 8.3 µM [1]: 95% | pEC50: > 6.00

CN1C(C)(C)Cc2c(sc(NC(=O)Nc3ccc(Cl)cc3)c2C(N)=O)C1(C)C [Example 120, 2-[3-(4-chlorophenyl)ureido]-5,5,6,7,7-pentamethyl-4,5,6,7-tetrahydrothieno[2,3-c]pyridine-3-carboxamide hydrochloride]
Emax at 2.8 µM [1]: 81% | pEC50: 5.00 to 6.00

CC[N+]1(C)CCc2c(sc(NC(=O)NCc3ccc(Cl)cc3)c2C(N)=O)C1 (centres unmarked) [Example 148, 3-Carbamoyl-2-[3-(4-chlorobenzyl)ureido]-6-ethyl-6-methyl-4,5,6,7-tetrahydrothieno[2,3-c]pyridin-6-ium iodide]
Emax at 25 µM [1]: 51% | pEC50: < 5.00

CC(C)C[N+]1(C)CCc2c(sc(NC(=O)Nc3ccc(Cl)c4ccccc34)c2C(N)=O)C1 (centres unmarked) [Example 181, 3-Carbamoyl-2-[3-(4-chloronaphthalen-1-yl)ureido]-6-isobutyl-6-methyl-4,5,6,7-tetrahydrothieno[2,3-c]pyridin-6-ium iodide]
Emax at 25 µM [1]: 93% | pEC50: 5.00 to 6.00

CCN1CCc2c(sc(NC(=O)Nc3ccc(Cl)s3)c2C(N)=O)C1 [Example 94, 2-[3-(5-Chlorothiophen-2-yl)ureido]-6-ethyl-4,5,6,7-tetrahydrothieno[2,3-c]pyridine-3-carboxamide hydrochloride]
Emax at 25 µM [1]: 69% | pEC50: < 5.00

NC(=O)c1c(NC(=O)Nc2ccc(Cl)cc2)sc2c1CCN(CC1CCCCC1)C2 [Example 16, 2-[3-(4-Chlorophenyl)ureido]-6-(cyclohexylmethyl)-4,5,6,7-tetrahydrothieno[23-c]pyridine-3-carboxamide hydrochloride]
Emax at 2.8 µM [1]: 57% | pEC50: 5.00 to 6.00

CC[N+]1(CCCC(=O)OC(C)(C)C)CCc2c(sc(NC(=O)Nc3ccc(Cl)cc3)c2C(N)=O)C1 (centres unmarked) [Example 198, 6-[4-(tert-Butoxy)-4-oxobutyl]-3-carbamoyl-2-[3-(4-chlorophenyl)ureido]-6-ethyl-4,5,6,7-tetrahydrothieno[2,3-c]pyridin-6-ium trifluoroacetate]
Emax at 2.8 µM [1]: 89% | pEC50: > 6.00

NC(=O)c1c(NC(=O)Nc2ccc(Cl)cc2)sc2c1CCN(CC13CC4CC(CC(C4)C1)C3)C2 [Example 49, 6-[(3r,5r,7r)-Adamantan-1-ylmethyl]-2-[3-(4-chlorophenyl)ureido]-4,5,6,7-tetrahydrothieno[2,3-c]pyridine-3-carboxamide hydrochloride]
Emax at 2.8 µM [1]: 64% | pEC50: 5.00 to 6.00

CCN1CCc2c(sc(NC(=O)Nc3ccc(Cl)cc3)c2C(=O)NCCN2CCOCC2)C1 [Example 100, 2-[3-(4-Chlorophenyl)ureido]-6-ethyl-N-(2-morpholinoethyl)-4,5,6,7-tetrahydrothieno[2,3-c]pyridine-3-carboxamide dihydrochloride]
Emax at 25 µM [1]: 59% | pEC50: 5.00 to 6.00

COC(=O)CCN1CCc2c(sc(NC(=O)Nc3ccc(Cl)cc3)c2C(N)=O)C1 [Example 55, Methyl 3-{3-carbamoyl-2-[3-(4-chlorophenyl)ureido]-4,5-dihydrothieno[2,3-c]pyridin-6(7H)-yl}propanoate]
Emax at 2.8 µM [1]: 17%

CC[N+]1(C)CCc2c(sc(NC(=O)Nc3ccc(C#N)cc3)c2C(N)=O)C1 (centres unmarked) [Example 150, 3-Carbamoyl-2-[3-(4-cyanophenyl)ureido]-6-ethyl-6-methyl-4,5,6,7-tetrahydrothieno[2,3-c]pyridin-6-ium iodide]
Emax at 25 µM [1]: 43%

CC(C)(C)c1ccc(CCC(=O)NCCCN2CCc3c(sc(NC(=O)Nc4ccc(Cl)cc4)c3C(N)=O)C2)cc1 [Example 213, 6-{3-[3-(4-tert-butylphenyl)propanamido]propyl}-2-{[(4-chlorophenyl)carbamoyl]amino}-4H,5H,6H,7H-thieno[2,3-c]pyridine-3-carboxamide]
Emax at 2.8 µM [1]: 92% | pEC50: > 6.00

CC(C)(C)OC(=O)CCCC[N+]1(C)CCc2c(sc(NC(=O)Nc3ccc(Cl)cc3)c2C(N)=O)C1 (centres unmarked) [Example 155, 6-(5-tert-Butoxy-5-oxopentyl)-3-carbamoyl-2-[3-(4-chlorophenyl)ureido]-6-methyl-4,5,6,7-tetrahydrothieno[2,3-c]pyridin-6-ium iodide]
Emax at 2.8 µM [1]: 75% | pEC50: > 6.00

CCN1CCc2c(sc(Nc3c(Nc4ccc(Cl)cc4)c(=O)c3=O)c2C(N)=O)C1 [Example 109, 2-({2-[(4-chlorophenyl)amino]-3,4-dioxocyclobut-1-en-1-yl}amino)-6-ethyl-4,5,6,7-tetrahydrothieno[2,3-c]pyridine-3-carboxamide hydrochloride]
Emax at 25 µM [1]: 22%

CC[N+]1(CC)CCc2c(sc(NC(=O)Nc3ccc(Cl)cc3)c2C(N)=O)C1 [Example 139, 3-Carbamoyl-2-[3-(4-chlorophenyl)ureido]-6,6-diethyl-4,5,6,7-tetrahydrothieno[2,3-c]pyridin-6-ium iodide]
Emax at 25 µM [1]: 99% | pEC50: > 6.00

CCN1CCc2c(sc(NC(=O)Nc3cccc(Cl)c3Cl)c2C(N)=O)C1 [Example 74, 2-[3-(2,3-Dichlorophenyl)ureido]-6-ethyl-4,5,6,7-tetrahydrothieno[2,3-c]pyridine-3-carboxamide hydrochloride]
Emax at 25 µM [1]: 54% | pEC50: < 5.00

CC(C)(C)OC(=O)NCCN1CCc2c(sc(NC(=O)Nc3ccc(Cl)cc3)c2C(N)=O)C1 [Example 10, tert-Butyl 2-{3-carbamoyl-2-[3-(4-chlorophenyl)ureido]-4,5-dihydrothieno[2,3-c]pyridin-6(7H)-yl}ethylcarbamate]
Emax at 8.3 µM [1]: 13%

CCN1CCc2c(sc(NC(=O)Nc3ccc(C(F)(F)F)cc3)c2C(N)=O)C1 [Example 221, 6-ethyl-2-({[4-(trifluoromethyl)phenyl]carbamoyl}amino)-4H,5H,6H,7H-thieno[2,3-c]pyridine-3-carboxamide]
Emax at 25 µM [1]: 68% | pEC50: 5.00 to 6.00

NC(=O)c1c(NC(=O)Nc2ccc(Cl)cc2)sc2c1CCN(CCCNC(=O)CCc1cccc3ccccc13)C2 [Example 214, 2-{[(4-chlorophenyl)carbamoyl]amino}-6-{3-[3-(naphthalen-1-yl)propanamido]propyl}-4H,5H,6H,7H-thieno[2,3-c]pyridine-3-carboxamide]
Emax at 2.8 µM [1]: 95% | pEC50: > 6.00

C[N+]1(CC2CCC2)CCc2c(sc(NC(=O)Nc3ccc(Cl)c4ccccc34)c2C(N)=O)C1 (centres unmarked) [Example 182, 3-Carbamoyl-2-[3-(4-chloronaphthalen-1-yl)ureido]-6-(cyclobutylmethyl)-6-methyl-4,5,6,7-tetrahydrothieno[2,3-c]pyridin-6-ium chloride]
Emax at 83 µM (maximum observed @ 83 μM test compound, 200 micromolar neomycin, read-out: Max HC Protection (HCmax, % hair cell survival)): 76% | pEC50: 5.00 to 6.00

CC(C)(C)OC(=O)N1CCC(N2CCc3c(sc(NC(=O)Nc4ccc(Cl)cc4)c3C(N)=O)C2)C1 (centres unmarked) [Example 4, tert-Butyl 3-{3-carbamoyl-2-[3-(4-chlorophenyl)ureido]-4,5-dihydrothieno[2,3-c]pyridin-6(7H)-yl}pyrrolidine-1-carboxylate]
Emax at 8.3 µM [1]: 56% | pEC50: 5.00 to 6.00

C[N+]12CCCCC1Cc1c(sc(NC(=O)Nc3ccc(Cl)cc3)c1C(N)=O)C2 (racemic) [Example 177, (+/−)-3-Carbamoyl-2-[3-(4-chlorophenyl)ureido]-9-methyl-4,4a,5,6,7,8,9,10-octahydrothieno[3,2-b]quinolizin-9-ium iodide]
Emax at 25 µM [1]: 97% | pEC50: 5.00 to 6.00

NC(=O)c1c(NC(=O)Nc2ccc(Cl)cc2)sc2c1CC[N+]1(CCCC1)C2 [Example 138, 3′-Carbamoyl-2′-[3-(4-chlorophenyl)ureido]-5′,7′-dihydro-4′H-spiro[pyrrolidine-1,6′-thieno[2,3-c]pyridin]-1-ium bromide]
Emax at 25 µM [1]: 94% | pEC50: > 6.00

CCN1CCc2c(sc(NC(=O)Nc3ccc(CC(=O)O)cc3)c2C(N)=O)C1 [Example 33, 2-{4-[3-(3-Carbamoyl-6-ethyl-4,5,6,7-tetrahydrothieno[2,3-c]pyridin-2-yl)ureido]phenyl}acetic acid trifluoroacetate]
Emax at 0.93 µM (maximum observed @ 0.93 μM test compound, 200 micromolar neomycin, read-out: Max HC Protection (HCmax, % hair cell survival)): 9%
